Structures are written as SMILES.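 Method: 48-hour compound exposure of cells in 96-well plates, five concentrations, linear interpolation of endpoints. GI50 = concentration required for 50% inhibition of growth.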 Active and inactive are the calls of the source. Cut-off read from the data, not from the text of the source: active = GI50 up to about 1.1 µM and inactive = higher.

Consider 8 compounds from ChEMBL document CHEMBL1201862, “PubChem BioAssay data set” (2004).

Test systems include 786-0; A498; CAKI-1; DMS-273; HCC 2998; HL-60; HOP-62; HOP-92; HT-29; KM12; LOX IMVI; M14; MOLT-4; NCI-H226; OVCAR-3; OVCAR-5; SF-539; SNB-75; U-251; UACC-257.
Holding throughout (assay): growth of human tumour cells (NCI), 48 h

Regarding `[O-][N+]1=C(c2ccccc2)COc2ccccc21`, the GI50 in the assay on 786-0, in the assay with A498, in the assay with CAKI-1, in the assay on DMS-273, with HCC 2998 and in the assay with HL-60 was > 100 µM (inactive) each time. In addition, the GI50 in the assay on HOP-62 is > 100 µM (inactive); with HOP-92 it was > 100 µM (inactive); in the assay on HT-29, > 100 µM (inactive); with KM12, > 100 µM (inactive); in the assay on LOX IMVI, 96.4 µM (inactive); in the assay with M14 it was > 100 µM (inactive). For the same compound, the GI50 in the assay on MOLT-4, in the assay with NCI-H226, with OVCAR-3, in the assay on OVCAR-5, with SF-539 and in the assay with SNB-75 was > 100 µM (inactive) each time. Also, the GI50 with U-251 and in the assay with UACC-257 was > 100 µM (inactive) throughout.

Turning to `CCN(CCCl)CCCCNc1c2ccccc2nc2ccc(OC)cc12`, the GI50 in the assay with 786-0 is 0.157 µM (active); in the assay with A498, 0.379 µM (active); in the assay on CAKI-1, 0.394 µM (active); in the assay with DMS-273 it was 0.0865 µM (active); in the assay with HL-60, 0.0929 µM (active); in the assay with HOP-62, 0.439 µM (active). In addition, the GI50 in the assay on HOP-92 is 0.18 µM (active); in the assay with HT-29, 0.13 µM (active); with KM12, 0.356 µM (active); with LOX IMVI it was 0.149 µM (active); in the assay with M14, 1.12 µM (inactive); with MOLT-4, < 0.01 µM (active). The GI50 was 0.102 µM (active) in the assay with NCI-H226; 1.15 µM (inactive) in the assay on OVCAR-3; 0.659 µM (active) with OVCAR-5; 0.653 µM (active) in the assay on SF-539; 0.472 µM (active) in the assay with SNB-75; 0.239 µM (active) in the assay with U-251. The GI50 in the assay on UACC-257 was 2.67 µM (inactive).

For `COC(=O)/C([Se]c1c(C)cc(C)cc1C)=C(\[Se]c1c(C)cc(C)cc1C)C(=O)OC`, the GI50 in the assay on 786-0, in the assay on A498, in the assay on CAKI-1, in the assay with DMS-273, in the assay on HCC 2998 and in the assay on HL-60 was > 100 µM (inactive) throughout. For the same compound, the GI50 in the assay on HOP-62, in the assay on HOP-92, with HT-29, with KM12, in the assay with LOX IMVI and with M14 was > 100 µM (inactive) each time. Moreover, the GI50 in the assay with MOLT-4 was > 100 µM (inactive); with NCI-H226, > 100 µM (inactive); in the assay with OVCAR-3 it was > 100 µM (inactive); with OVCAR-5, > 100 µM (inactive); in the assay with SF-539 it was > 10 µM (inactive); with SNB-75 it was > 100 µM (inactive). In addition, the GI50 in the assay on U-251 and in the assay with UACC-257 was > 100 µM (inactive) each time.

Consider `c1ccc(N2N=NC3C4CC(C5c6ccccc6C45)C32)cc1` (stereo not drawn), for which the GI50 in the assay with 786-0 was 59 µM (inactive); with A498, 39.1 µM (inactive); in the assay on CAKI-1, 31 µM (inactive); in the assay on DMS-273, 47.1 µM (inactive); in the assay on HL-60, 19.1 µM (inactive); in the assay with HOP-62, 64.4 µM (inactive). Besides, the GI50 in the assay on HOP-92 is 19.1 µM (inactive); in the assay with HT-29, 19.6 µM (inactive); with KM12, 39.3 µM (inactive); in the assay with LOX IMVI it was 18.8 µM (inactive); in the assay with M14, 54.1 µM (inactive); in the assay on MOLT-4, 17.1 µM (inactive). In addition, the GI50 in the assay with NCI-H226 is 37.8 µM (inactive); in the assay on OVCAR-3 it was 26.6 µM (inactive); with OVCAR-5, 44.6 µM (inactive); with SF-539 it was 78.5 µM (inactive); in the assay on SNB-75, 35.7 µM (inactive); in the assay with U-251, 32.5 µM (inactive). In addition, the GI50 in the assay with UACC-257 is 24.2 µM (inactive).

`COc1cccc2c1c1ccc3c(c1n2C)C(=O)C=CC3=O`: the GI50 in the assay with 786-0 was 17.3 µM (inactive); in the assay with A498, > 100 µM (inactive); in the assay with CAKI-1, 3.15 µM (inactive); with DMS-273, 16 µM (inactive); in the assay with HCC 2998, 48.4 µM (inactive); in the assay with HL-60, 1.51 µM (inactive). For the same compound, the GI50 is > 100 µM (inactive) in the assay on HOP-62; 13.1 µM (inactive) in the assay with HOP-92; 2.43 µM (inactive) in the assay on HT-29; 78 µM (inactive) with KM12; 16.9 µM (inactive) in the assay on LOX IMVI; 14.6 µM (inactive) with M14. The GI50 in the assay with MOLT-4 was 2.64 µM (inactive); in the assay with NCI-H226, 64.3 µM (inactive); in the assay on OVCAR-3 it was 16.3 µM (inactive); with OVCAR-5, 41.9 µM (inactive); in the assay with SF-539 it was 16.6 µM (inactive); with SNB-75 it was 0.695 µM (active). In addition, the figures for the GI50 in the assay with U-251 and with UACC-257 were 48.5 µM (inactive) and 14.9 µM (inactive), respectively.

With `COc1ccc([Se][Se]c2ccc(OC)cc2OC)c(OC)c1`, the GI50 in the assay on 786-0 was 2.81 µM (inactive); in the assay with A498 it was 18.2 µM (inactive); in the assay on CAKI-1 it was 3.54 µM (inactive); with DMS-273 it was 5.12 µM (inactive); in the assay on HCC 2998, 6.07 µM (inactive); in the assay with HL-60 it was 2.43 µM (inactive). Also, the GI50 with HOP-62 is > 10 µM (inactive); with HOP-92 it was 2.35 µM (inactive); in the assay with HT-29, 3.14 µM (inactive); with KM12 it was 3.52 µM (inactive); in the assay with LOX IMVI it was 2 µM (inactive); in the assay with M14, 2.92 µM (inactive). Moreover, the GI50 in the assay with MOLT-4 was 3.07 µM (inactive); in the assay on NCI-H226, 2.9 µM (inactive); in the assay on OVCAR-3, 3.52 µM (inactive); in the assay on SF-539, 1.75 µM (inactive); with SNB-75, 1.59 µM (inactive); in the assay with UACC-257, 2.45 µM (inactive).

With `COc1cc(C(Cc2ccccc2)NC(C)=O)oc(=O)c1` (stereo not drawn), the GI50 with 786-0, with A498, with CAKI-1, in the assay with DMS-273, in the assay with HCC 2998 and in the assay with HL-60 was > 100 µM (inactive) in each case. The GI50 with HOP-62, in the assay on HOP-92, with HT-29, in the assay on KM12, with LOX IMVI and in the assay on M14 was > 100 µM (inactive) throughout. The GI50 was > 100 µM (inactive) with NCI-H226; > 100 µM (inactive) with OVCAR-3; > 100 µM (inactive) with OVCAR-5; 25 µM (inactive) in the assay with SNB-75; > 100 µM (inactive) with U-251; > 100 µM (inactive) in the assay with UACC-257.

As to `COC(=O)C(C(=O)C(=O)Nc1ccc(C)cc1C)c1csc(-n2nc(-c3ccccc3)cc2-c2ccccc2)n1` (stereo not drawn), the GI50 with 786-0, with A498, in the assay with CAKI-1, with DMS-273, in the assay on HCC 2998 and with HL-60 was > 100 µM (inactive) throughout. Moreover, the GI50 is > 100 µM (inactive) with HOP-62; > 100 µM (inactive) in the assay on HOP-92; 31.4 µM (inactive) with HT-29; 65.2 µM (inactive) with KM12; 80 µM (inactive) in the assay with LOX IMVI; > 100 µM (inactive) with M14. Also, the GI50 was 22.5 µM (inactive) in the assay with MOLT-4; 80.2 µM (inactive) in the assay with NCI-H226; 86.5 µM (inactive) with OVCAR-3; 49.9 µM (inactive) in the assay with OVCAR-5; 6.37 µM (inactive) in the assay with SNB-75; 67.5 µM (inactive) with U-251. The GI50 with UACC-257 was > 100 µM (inactive).
